Two compounds from US8802132B2, “Anti-microbial tissue paper and process to manufacture same” (Cascades Canada ULC, priority 2010, dated 2014) can be followed below.

A short description of data set [1]: Charge density of cationizing agents, antimicrobial agent and fibres. Format: physicochemical.
The nature of data set [2]: Benzalkonium chloride release from wetted paper, lab blender extraction method. The format is physicochemical. As to conditions: hand towel made of recycled pulp; cationizing agent about 1.2 wt % (12 kg/T); benzalkonium chloride about 1 wt %. An excerpt:
As mentioned above, the cationizing agent at least partially neutralizes the paper anionic charges. Thereby, a portion of the antimicrobial agent, which can also be cationic, is not retained on the tissue paper when the latter is wetted and is thereby released. In an embodiment, the tissue paper has a release rate between approximately 0.01 wt % and 0.6 wt % when wetted. In an alternative embodiment, the tissue paper has a release rate between approximately 0.05 wt % and 0.2 wt % when wetted. For example, a tissue paper containing about 0.3 wt % of antimicrobial agent can release about 0.1 wt % of antimicrobial agent when wetted. The antimicrobial agent released from the tissue paper is measured relatively to the original, substantially dry tissue paper weight including the cationizing and antimicrobial agents. The antimicrobial agent released from the tissue paper is measured in a solution, such as water, following extraction. For the release rates mentioned in the application, the extraction is carried out by the lab blender method described below. The antimicrobial agent in the solution is measured by a method such as and without being limitative biphasic titration or high performance liquid chromatography (HPLC).
The amount of antimicrobial agent released will be highly dependent on the method used to retrieve it from the paper. […]

As to “benzalkonium chloride [Antimicrobial agent]”, the Charge density result in data set [1] (Table 4, recycled deinked pulp (DIP) hand towel) is recorded as “+2.9 equiv/kg”; in data set [1] (Table 5, virgin bleached Kraft hand towel), “+2.9 equiv/kg”.

With `CCCCCCCCCCCCCCCC[N+](C)(C)C.[Cl-]` [Cetyltrimethylammonium chloride, cetyltrimethylammonium chloride], the “Charge density” value in data set [1] (cationic agent of Table 3) is 3.76 eq/kg. The Benzalkonium chloride released in data set [2] is given as 0.23 % (w/w).
